For assay [1], the system named is STZ induced diabetic nephropathy in rats. Put plainly: Study 3: HCQ and its combination with Losartan, Telmisartan, Azilsartan and Ramipril. The format is in vivo, Wistar rats. The note with it: oral once daily 8 weeks. The method, then:
The methods described in Terri et al, Diabetes Volume, 1997, 46:1612-1618, and Takashi et al, Jpn J. Pharmacol, 1997, 75, 59-64, were followed for inducing Diabetes in rats by injecting Streptozotocin. The Efficacy of the drugs was tested in two different models, one involving comparison with diabetic control (i.e. Diabetic Rats not treated with any medication) and the other involving comparison with the anti-diabetic control group (i.e. Diabetic rats administered Glimepiride) in two separate studies.
Male Wistar rats weighing 150-350 g were divided randomly into 29 groups consisting of 6 animals each. Diabetes was induced in rats by single administration of streptozotocin (55 mg/kg/i.p) dissolved in 0.1 M-citrate buffer, pH 4.5. Group 1 (normal control) consisted of normal rats that neither received streptozotocin nor any test drug; Group 2 consisted of normal rats treated with vehicle, Group 3 served as Streptozotocin (STZ) induced diabetic control. Group 4 was diabetic rats treated with Losartan (LT) (5.5 mg/kg); Group 5 was diabetic rats treated with LT (11 mg/kg); Group 6 was diabetic rats treated with Hydroxychloroquine (HCQ) (22.5 mg/kg), Group 7 was diabetic rats treated with HCQ (45 mg/kg); Group 8 was diabetic rats treated with combination of LT (5.5 mg/kg) and HCQ (22.5 mg/kg); Group 9 was diabetic rats treated with combination of LT (5.5 mg/kg) and HCQ (45 mg/kg); Group 10 was diabetic rats treated with LT (11 mg/kg) and HCQ (22.5 mg/kg); Group 11 was diabetic rats treated with LT (11 mg/kg) and HCQ (45 mg/kg); Group 12 was diabetic rats treated with Telmisartan (TL) (5 mg/kg); Group 13 was diabetic rats treated with Telmisartan (TL) (10 mg/kg); Group 14 was diabetic rats treated with the combination of TL (5 mg/kg) and HCQ (22.5 mg/kg); Group 15 was diabetic rats treated with the combination of TL (5 mg/kg) and HCQ (45 mg/kg); Group 16 was diabetic rats treated with the combination of TL (10 mg/kg) and HCQ (22.5 mg/kg); Group 17 was diabetic rats treated with the combination of TL (10 mg/kg) and HCQ (45 mg/kg); Group 18 was diabetic rats treated with Azilsartan (AZ) (2 mg/kg); Group 19 was diabetic rats treated with Azilsartan (AZ) (4 mg/kg); Group 20 was diabetic rats treated with combination of AZ (2 mg/kg) and HCQ (22.5 mg/kg); Group 21 was diabetic rats treated with combination of AZ (2 mg/kg) and HCQ (45 mg/kg); Group 22 was diabetic rats treated with combination of AZ (4 mg/kg) and HCQ (22.5 mg/kg); Group 23 diabetic rats treated with combination of AZ (4 mg/kg) and HCQ (45 mg/kg); Group 24 was diabetic rats treated with Ramipril (RM) (0.2 mg/kg); Group 25 was diabetic rats treated with RM (2.3 mg/kg); Group 26 was diabetic rats treated with combination of RM […]) and HCQ (22.5 mg/kg); Group 27 was diabetic rats treated with combination of RM (0.2 mg/kg) and HCQ (45 mg/kg); Group 28 was diabetic rats treated with combination of RM (2.3 mg/kg) and HCQ (22.5 mg/kg); Group 29 was diabetic rats treated with combination of RM (2.3 mg/kg) and HCQ (45 mg/kg). The study drugs (LT and HCQ) were dissolved in distilled water and other study drugs (AZ, RM and TL) were suspended in 0.5% w/v sodium carboxy methyl cellulose (CMC) and administered orally once a day for eight weeks. Biochemical parameters like serum urea, serum creatinine, serum protein, and renal oxidative stress parameters like TBARS and GSH were assessed after the completion of eighth week of the study.

Assay [2] concerns Streptozotocin (STZ) induced diabetic rats. Description: Study 2: HCQ and its combination with Losartan in comparison with anti-diabetic control (Glimepiride) in renal damage. The note with it: for Serum Creatinine after 8th week / Serum Creatinine after 8th week (% Control) / Total Serum Protein Levels after 8th week / Total Serum Protein Levels after 8th week (% Control): Glimepiride 8 mg/kg alone (antidiabetic control) or with Losartan 11 mg/kg and/or Hydroxychloroquine 45 mg/kg, oral once daily; for Total Protein in Kidney Homogenate (% Control) / Total Protein in Kidney Homogenate Mean / TBARS (% Control) / TBARS Mean: after 8th week, Glimepiride 8 mg/kg alone or with Losartan 11 mg/kg and/or Hydroxychloroquine 45 mg/kg; for TBARS (% Control) / TBARS Mean: kidney homogenate. The format is in vivo, Wistar rats. The method, then:
The Efficacy of the drugs was tested in two different models, one involving comparison with diabetic control (i.e. Diabetic Rats not treated with any medication) and the other involving comparison with the anti-diabetic control group (i.e. Diabetic rats administered Glimepiride) in two separate studies. 30 Wistar rats of either sex weighing 150-250 g were divided randomly into 5 groups consisting of 6 animals each. Diabetes was induced in rats by single administration of Streptozotocin (STZ)(55 mg/kg/i.p) dissolved in 0.1 M-citrate buffer, pH 4.5. Group 1 (normal control) consisted of normal rats that neither received streptozotocin nor any test drug; Group 2 served as Anti-Diabetic control wherein diabetic rats were treated with antidiabetic drug Glimepiride. Group 3 was diabetic rats treated with Losartan (11 mg/kg); Group 4 was diabetic rats treated with Hydroxychloroquine (45 mg/kg) and Group 5 was diabetic rats treated with combination of Hydroxychloroquine (45 mg/kg) and Losartan (11 mg/kg). The study drugs were dissolved/suspended in distilled water and administered orally once a day for eight weeks. The diabetes mellitus induced nephropathy was assessed by estimating the level of serum creatinine and total serum protein content after completion of eighth week of study. TBARS and Total Protein were measured as markers of renal oxidative stress in Kidney Homogenate after completion of eighth week of study.

[3] abbreviates: dose mg/kg: LT 5.5, TL 5, AZ 2, RM 0.2, HCQ 22.5, alone or combined with HCQ 22.5.
Where [4] appears, read: dose mg/kg: LT 11, TL 10, AZ 4, RM 2.3, HCQ 45, alone or combined with HCQ 45.

On to `CCOc1nc2cccc(C(=O)O)c2n1Cc1ccc(-c2ccccc2-c2nc(=O)o[nH]2)cc1` [Azilsartan], for which, in assay [1] (setting [3]), the Creatinine clearance is 0.69 ± 0.05 mL/min, the GSH came to 9.54 ± 1.54 nM/mg, the Serum creatinine amounted to 0.98 ± 0.07 mg/dL and the Serum protein was 5.79 ± 0.37 g/dL. Further, in assay [1] (setting [3]), the Serum urea was 89.83 ± 4.67 mg/dL, the TBARS was 0.624 ± 0.11 nM/mg and the Urea clearance worked out at 0.41 ± 0.07 mL/min. In assay [1] (setting [4]), the Creatinine clearance was found to be 0.74 ± 0.04 mL/min, the GSH worked out at 13.49 ± 0.90 nM/mg, the Serum creatinine turned out to be 0.87 ± 0.04 mg/dL and the Serum protein was 6.76 ± 0.16 g/dL. In addition, in assay [1] (setting [4]), the Serum urea worked out at 75.94 ± 4.11 mg/dL, the TBARS amounted to 0.540 ± 0.04 nM/mg and the Urea clearance was found to be 0.44 ± 0.03 mL/min.

Regarding `CCN(CCO)CCCC(C)Nc1ccnc2cc(Cl)ccc12` (centres unmarked) [Hydroxychloroquine, 2-[{4-[(7-chloroquinolin-4-yl)amino]pentyl}(ethyl)amino]ethanol], in assay [1] (setting [3]), the Creatinine clearance worked out at 0.60 ± 0.06 mL/min, the GSH is recorded as 8.59 ± 0.76 nM/mg, the Serum creatinine is 0.87 ± 0.07 mg/dL and the Serum protein came out at 5.57 ± 0.20 g/dL. Also, in assay [1] (setting [3]), the Serum urea was determined as 91.29 ± 7.29 mg/dL, the TBARS was 0.726 ± 0.06 nM/mg and the Urea clearance is 0.36 ± 0.03 mL/min. For the same compound, in assay [1] (setting [4]), the Creatinine clearance stood at 0.67 ± 0.10 mL/min, the GSH was determined as 14.29 ± 1.33 nM/mg, the Serum creatinine amounted to 0.74 ± 0.12 mg/dL and the Serum protein is 5.95 ± 0.31 g/dL. In assay [1] (setting [4]), the Serum urea was 83.64 ± 6.60 mg/dL, the TBARS came to 0.608 ± 0.06 nM/mg and the Urea clearance came to 0.42 ± 0.04 mL/min. Also, in assay [2], the “Serum Creatinine after 8th week” value amounted to 2.80 mg/dL, the “Serum Creatinine after 8th week (% Control)” value is on record as “(88.33) % Control”, the “Total Serum Protein Levels after 8th week” value came out at 5.39 g/dL and the “Total Serum Protein Levels after 8th week (% Control)” value was “(112.24) % Control”. Also, in assay [2], the “Total Protein in Kidney Homogenate (% Control)” value is “(107.68) % Control”, the “Total Protein in Kidney Homogenate Mean” value is 1003.83 µg/mL, the “TBARS (% Control)” value was “(57.32) % Control” and the “TBARS Mean” value is on record as 0.47 nM/mg.

With `CCCCc1nc(Cl)c(CO)n1Cc1ccc(-c2ccccc2-c2nn[nH]n2)cc1` [Losartan], in assay [1] (setting [3]), the Creatinine clearance came to 0.59 ± 0.06 mL/min, the GSH is listed as 8.66 ± 0.48 nM/mg, the Serum creatinine is 1.23 ± 0.18 mg/dL and the Serum protein is 5.23 ± 0.31 g/dL. Further, in assay [1] (setting [3]), the Serum urea was 101.45 ± 2.69 mg/dL, the TBARS was 0.760 ± 0.05 nM/mg and the Urea clearance stood at 0.33 ± 0.02 mL/min. In assay [1] (setting [4]), the Creatinine clearance was 0.67 ± 0.12 mL/min, the GSH is listed as 12.78 ± 1.48 nM/mg, the Serum creatinine was 0.99 ± 0.05 mg/dL and the Serum protein is 5.75 ± 0.23 g/dL. In assay [1] (setting [4]), the Serum urea was determined as 93.10 ± 4.45 mg/dL, the TBARS was determined as 0.670 ± 0.05 nM/mg and the Urea clearance was determined as 0.44 ± 0.03 mL/min. Besides, in assay [2], the “Serum Creatinine after 8th week” value came to 3.00 mg/dL, the “Serum Creatinine after 8th week (% Control)” value is recorded as “(94.64) % Control”, the “Total Serum Protein Levels after 8th week” value was found to be 5.45 g/dL and the “Total Serum Protein Levels after 8th week (% Control)” value is reported as “(113.21) % Control”. Also, in assay [2], the “Total Protein in Kidney Homogenate (% Control)” value is listed as “(98.15) % Control”, the “Total Protein in Kidney Homogenate Mean” value stood at 909.50 µg/mL, the “TBARS (% Control)” value was “(76.83) % Control” and the “TBARS Mean” value is reported as 0.63 nM/mg.

For the compound `CCOC(=O)[C@H](CCc1ccccc1)N[C@@H](C)C(=O)N1[C@H](C(=O)O)C[C@@H]2CCC[C@@H]21` [Ramipril], in assay [1] (setting [3]), the Creatinine clearance is 0.54 ± 0.05 mL/min, the GSH was 8.48 ± 0.59 nM/mg, the Serum creatinine worked out at 0.90 ± 0.05 mg/dL and the Serum protein was 5.30 ± 0.36 g/dL. For the same compound, in assay [1] (setting [3]), the Serum urea is 98.33 ± 6.15 mg/dL, the TBARS is reported as 0.716 ± 0.06 nM/mg and the Urea clearance was 0.41 ± 0.05 mL/min. Moreover, in assay [1] (setting [4]), the Creatinine clearance came to 0.61 ± 0.07 mL/min, the GSH came out at 10.57 ± 0.37 nM/mg, the Serum creatinine was determined as 0.85 ± 0.06 mg/dL and the Serum protein worked out at 5.67 ± 0.27 g/dL. Further, in assay [1] (setting [4]), the Serum urea was 87.83 ± 5.23 mg/dL, the TBARS was determined as 0.614 ± 0.06 nM/mg and the Urea clearance is 0.45 ± 0.05 mL/min.

Consider `CCCc1nc2c(C)cc(-c3nc4ccccc4n3C)cc2n1Cc1ccc(-c2ccccc2C(=O)O)cc1` [Telmisartan], for which, in assay [1] (setting [3]), the Creatinine clearance came to 0.73 ± 0.07 mL/min, the GSH came to 9.65 ± 1.24 nM/mg, the Serum creatinine amounted to 1.02 ± 0.13 mg/dL and the Serum protein was determined as 5.94 ± 0.46 g/dL. In addition, in assay [1] (setting [3]), the Serum urea is 92.39 ± 4.06 mg/dL, the TBARS came to 0.675 ± 0.07 nM/mg and the Urea clearance was 0.45 ± 0.05 mL/min. Besides, in assay [1] (setting [4]), the Creatinine clearance was 0.77 ± 0.04 mL/min, the GSH is given as 13.82 ± 0.34 nM/mg, the Serum creatinine stood at 0.78 ± 0.07 mg/dL and the Serum protein came out at 6.53 ± 0.40 g/dL. In assay [1] (setting [4]), the Serum urea came out at 82.71 ± 6.53 mg/dL, the TBARS was determined as 0.560 ± 0.06 nM/mg and the Urea clearance amounted to 0.47 ± 0.04 mL/min.

(Values after patent publication US20160030415A1, “TREATMENT AND PROPHYLAXIS OF KIDNEY DISEASES” (priority 2013, published 2016).)
